From the supplement of paper PMC5908809

Legend:
[1] = test system: normal primary NK cells, pool 3 (3 donors) (IL-2 2.5 ng/mL); assay: drug sensitivity score (DSS) (DSS units); higher = more sensitive; extreme values may be limits of the assay; settings: 72 h
YT (IL-2 2.5 ng/mL) [2] = assay: as above; settings: 72 h
SNK-6 (IL-2 2.5 ng/mL) [3] = assay: as above; settings: 72 h
IMC-1 (IL-2 20 ng/mL) [4] = assay: as above; settings: 72 h
NK-YS (IL-2 2.5 ng/mL) [5] = assay: as above; settings: 72 h
KAI3 (IL-2 2.5 ng/mL) [6] = assay: as above; settings: 72 h
[7] = test system: normal primary NK cells, pool 1 (3 donors) (IL-2 2.5 ng/mL); assay: as above; settings: 72 h
NK-92 (IL-2 2.5 ng/mL) [8] = assay: as above; settings: 72 h
NKL (IL-2 2.5 ng/mL) [9] = assay: as above; settings: 72 h
[10] = test system: normal primary NK cells, pool 1 (3 donors), resting (IL-2 0 ng/mL); assay: as above; settings: 72 h
DERL-7 (IL-2 2.5 ng/mL) [11] = assay: as above; settings: 72 h
[12] = test system: normal primary NK cells, pool 2 (3 donors) (IL-2 2.5 ng/mL); assay: as above; settings: 72 h
KHYG-1 (IL-2 2.5 ng/mL) [13] = assay: as above; settings: 72 h
[14] = test system: normal NK cells expanded with K562-aAPC; assay: as above; settings: 72 h; IL-2 2.5 ng/mL
Description: (§1)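 Drug sensitivity and resistance testing on K562-aAPC-expanded normal NK cells: 5 concentrations (10-fold steps over a 10,000-fold range), 72 h at 37 °C, viability by CellTiter-Glo normalised to DMSO and benzethonium chloride controls; DSS from the fitted curve.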

[15] = test system: normal NK cells expanded with K562-aAPC; assay: percent inhibition of viability; higher = more inhibition; settings: 72 h, IL-2 2.5 ng/mL
Description: as §1

[16] = test system: normal primary NK cells, pool 3 (3 donors) (IL-2 2.5 ng/mL); assay: as above; settings: 72 h
YT (IL-2 2.5 ng/mL) [17] = assay: as above; settings: 72 h
SNK-6 (IL-2 2.5 ng/mL) [18] = assay: as above; settings: 72 h
IMC-1 (IL-2 20 ng/mL) [19] = assay: as above; settings: 72 h
NK-YS (IL-2 2.5 ng/mL) [20] = assay: as above; settings: 72 h
KAI3 (IL-2 2.5 ng/mL) [21] = assay: as above; settings: 72 h
[22] = test system: normal primary NK cells, pool 1 (3 donors) (IL-2 2.5 ng/mL); assay: as above; settings: 72 h
NK-92 (IL-2 2.5 ng/mL) [23] = assay: as above; settings: 72 h
NKL (IL-2 2.5 ng/mL) [24] = assay: as above; settings: 72 h
[25] = test system: normal primary NK cells, pool 1 (3 donors), resting (IL-2 0 ng/mL); assay: as above; settings: 72 h
DERL-7 (IL-2 2.5 ng/mL) [26] = assay: as above; settings: 72 h
[27] = test system: normal primary NK cells, pool 2 (3 donors) (IL-2 2.5 ng/mL); assay: as above; settings: 72 h
KHYG-1 (IL-2 2.5 ng/mL) [28] = assay: as above; settings: 72 h

C=CCc1cccc(/C=N/NC(=O)CN2CCN(Cc3ccccc3)CC2)c1O [PAC-1] (max concentration tested 10000 nM)
Settings	drug sensitivity score
DERL-7 (IL-2 2.5 ng/mL) [11]	6.53
IMC-1 (IL-2 20 ng/mL) [4]	5.83
KAI3 (IL-2 2.5 ng/mL) [6]	13
KHYG-1 (IL-2 2.5 ng/mL) [13]	14.7
NK-92 (IL-2 2.5 ng/mL) [8]	12
NK-YS (IL-2 2.5 ng/mL) [5]	6.2
NKL (IL-2 2.5 ng/mL) [9]	13.9
SNK-6 (IL-2 2.5 ng/mL) [3]	11.3
YT (IL-2 2.5 ng/mL) [2]	9.03
[1]	7.93
[7]	5.57
[10]	4.76
[12]	6.79
[14]	8.67

percent inhibition of viability [%]
Settings	1 nM	10 nM	100 nM	1000 nM	10000 nM
DERL-7 (IL-2 2.5 ng/mL) [26]	-1.36	2.12	-2.94	12.2	80.9
IMC-1 (IL-2 20 ng/mL) [19]	-3.49	-2.97	1.56	1.88	100
KAI3 (IL-2 2.5 ng/mL) [21]	-5.72	-3.85	4.89	62.6	96.5
KHYG-1 (IL-2 2.5 ng/mL) [28]	-1.19	-1.29	5.59	74.1	104
NK-92 (IL-2 2.5 ng/mL) [23]	-11.7	-11	17.2	50.3	103
NK-YS (IL-2 2.5 ng/mL) [20]	-1.58	-1.32	5.2	5.35	97.7
NKL (IL-2 2.5 ng/mL) [24]	-9.29	8.69	4.48	69.2	97.8
SNK-6 (IL-2 2.5 ng/mL) [18]	10.2	3.22	2.33	48.9	97.7
YT (IL-2 2.5 ng/mL) [17]	-0.7	-1.17	5.18	22.7	99
[15]	-3.35	4.92	2.56	20.9	96.8
[16]	-13.1	-3.83	0.14	15.8	96
[22]	-3.78	-2.13	-1.5	3.37	92.1
[25]	-5.08	-13.3	-0.24	-2.95	89.9
[27]	-14.6	-2.22	5.41	12	86.3

Nc1cc(C(F)(F)F)c(-c2cc(N3CCOCC3)nc(N3CCOCC3)n2)cn1 [Buparlisib] (max concentration tested 10000 nM)
Settings	drug sensitivity score
DERL-7 (IL-2 2.5 ng/mL) [11]	9.98
IMC-1 (IL-2 20 ng/mL) [4]	4.51
KAI3 (IL-2 2.5 ng/mL) [6]	9.35
KHYG-1 (IL-2 2.5 ng/mL) [13]	12.6
NK-92 (IL-2 2.5 ng/mL) [8]	12.2
NK-YS (IL-2 2.5 ng/mL) [5]	11.7
NKL (IL-2 2.5 ng/mL) [9]	14
SNK-6 (IL-2 2.5 ng/mL) [3]	23.7
YT (IL-2 2.5 ng/mL) [2]	10.4
[1]	0.55
[7]	1.89
[10]	1.48
[12]	1.72
[14]	7.15

percent inhibition of viability [%]
Settings	1 nM	10 nM	100 nM	1000 nM	10000 nM
DERL-7 (IL-2 2.5 ng/mL) [26]	-4.02	6.38	3.7	42.2	89.9
IMC-1 (IL-2 20 ng/mL) [19]	-4.05	-1.36	2.62	-18.8	99.3
KAI3 (IL-2 2.5 ng/mL) [21]	-7.19	-5.48	-0.56	43	74.8
KHYG-1 (IL-2 2.5 ng/mL) [28]	-1.22	-0.26	7	57.9	101
NK-92 (IL-2 2.5 ng/mL) [23]	7.02	-3.67	15.7	52.4	96.2
NK-YS (IL-2 2.5 ng/mL) [20]	-0.4	-0.39	9.67	55	80
NKL (IL-2 2.5 ng/mL) [24]	-8.01	-1.84	8.57	69.1	73.8
SNK-6 (IL-2 2.5 ng/mL) [18]	33.1	31.2	38.8	73.2	92.7
YT (IL-2 2.5 ng/mL) [17]	-0.5	0.16	7.95	41.5	100
[15]	-3.33	-1.98	1.34	25.6	67
[16]	-11.4	-7.58	0	0.01	19.4
[22]	-1.97	-13.5	-2.5	4.32	28.6
[25]	6.15	-7.57	-1.1	2.62	26.9
[27]	-19.2	-7.45	6.25	8.14	26.6

CNC(=O)CN1CCC(Oc2cc3c(Nc4cccc(Cl)c4F)ncnc3cc2OC)CC1 [Sapitinib] (max concentration tested 1000 nM)
Settings	drug sensitivity score
DERL-7 (IL-2 2.5 ng/mL) [11]	0
IMC-1 (IL-2 20 ng/mL) [4]	0.17
KAI3 (IL-2 2.5 ng/mL) [6]	0
KHYG-1 (IL-2 2.5 ng/mL) [13]	0
NK-92 (IL-2 2.5 ng/mL) [8]	0
NK-YS (IL-2 2.5 ng/mL) [5]	0
NKL (IL-2 2.5 ng/mL) [9]	0
SNK-6 (IL-2 2.5 ng/mL) [3]	8.21
YT (IL-2 2.5 ng/mL) [2]	0.02
[1]	0
[7]	0
[10]	0
[12]	0
[14]	1.29

percent inhibition of viability [%]
Settings	0.1 nM	1 nM	10 nM	100 nM	1000 nM
DERL-7 (IL-2 2.5 ng/mL) [26]	3.06	0.6	-4.76	-5	-2.82
IMC-1 (IL-2 20 ng/mL) [19]	0.18	0.99	5.5	4.61	15.1
KAI3 (IL-2 2.5 ng/mL) [21]	-6.57	-1.42	0.58	-5.73	11.3
KHYG-1 (IL-2 2.5 ng/mL) [28]	0.69	2.55	10.2	2.53	4.41
NK-92 (IL-2 2.5 ng/mL) [23]	-3.59	-7.59	7.58	-10.8	6.39
NK-YS (IL-2 2.5 ng/mL) [20]	0.21	0.23	5.94	0.04	5.37
NKL (IL-2 2.5 ng/mL) [24]	-6.69	-1.96	-5.01	0.25	5.26
SNK-6 (IL-2 2.5 ng/mL) [18]	3.05	16.8	21.3	25.7	25.6
YT (IL-2 2.5 ng/mL) [17]	1.69	2.8	8.28	2.39	14.2
[15]	3.94	0.06	-2.58	3.86	22.1
[16]	-11.4	-8.98	0.1	-3.48	6.33
[22]	3.61	-8.96	0.62	-8.22	4.72
[25]	6.72	-12.5	3.2	-20.9	-10.5
[27]	-5.36	0.45	2.66	4.26	5.15
